Assay results reported in patent publication US9580390B2, “Indazole compounds as kinase inhibitors and method of treating cancer with same” (University Health Network, priority 2011, dated 2017).

How the values were obtained:
Breast cancer cells = assay: Cancer cell line growth inhibition (SRB assay); format: cell-based; conditions: Homo sapiens; MDA-MB-468; read-out: Cancer Cell Line GI50 Range MDA-MB-468
human TTK = biological target: T1, human TTK (Homo sapiens, UniProt P33981); assay: TTK inhibition assay (indirect ELISA); format: biochemical; conditions: read-out: TTK IC50 Range
T1 construct: amino terminal GST fusion of full length human TTK; purchased Invitrogen
T1 sequence (P33981 1-857): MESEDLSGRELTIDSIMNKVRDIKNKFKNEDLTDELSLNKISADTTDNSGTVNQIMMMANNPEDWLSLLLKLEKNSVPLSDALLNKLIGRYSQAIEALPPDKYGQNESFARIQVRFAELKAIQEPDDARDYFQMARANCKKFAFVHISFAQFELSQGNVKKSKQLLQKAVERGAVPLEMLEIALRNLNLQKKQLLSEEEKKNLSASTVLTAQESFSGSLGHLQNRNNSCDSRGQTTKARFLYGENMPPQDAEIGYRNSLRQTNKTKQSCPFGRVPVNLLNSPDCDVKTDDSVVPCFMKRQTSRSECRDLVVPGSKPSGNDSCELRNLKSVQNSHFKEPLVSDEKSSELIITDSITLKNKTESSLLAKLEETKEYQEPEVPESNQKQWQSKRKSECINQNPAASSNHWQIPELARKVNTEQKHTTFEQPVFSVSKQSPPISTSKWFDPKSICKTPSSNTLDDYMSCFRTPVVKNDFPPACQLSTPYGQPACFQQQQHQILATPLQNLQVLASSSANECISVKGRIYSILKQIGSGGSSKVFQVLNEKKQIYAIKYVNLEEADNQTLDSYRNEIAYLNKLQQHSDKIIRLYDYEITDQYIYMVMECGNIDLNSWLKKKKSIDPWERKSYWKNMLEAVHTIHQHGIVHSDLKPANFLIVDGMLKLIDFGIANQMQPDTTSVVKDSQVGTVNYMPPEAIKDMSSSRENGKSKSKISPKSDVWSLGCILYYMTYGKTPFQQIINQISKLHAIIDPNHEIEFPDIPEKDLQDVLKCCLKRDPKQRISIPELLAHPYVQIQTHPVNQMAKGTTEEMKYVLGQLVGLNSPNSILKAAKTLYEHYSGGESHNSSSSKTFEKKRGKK

[1] = tested on: colon cancer cells (HCT116); assay: Cancer cell line growth inhibition (SRB assay); format: cell-based; conditions: Homo sapiens, HCT-116; read-out: Cancer Cell Line GI50 Range HCT116
[2] = tested on: ovarian cancer cells (PA-1); assay: Cancer cell line growth inhibition (SRB assay); format: cell-based; conditions: Homo sapiens, PA-1; read-out: Cancer Cell Line GI50 Range PA-1

| Compound | GI50 (Breast cancer cells) [nM] | IC50 (human TTK) [nM] | GI50 [1] [nM] | GI50 [2] [nM] |
| --- | --- | --- | --- | --- |
| CCC(CC)(CNC(=O)c1ccc2[nH]nc(-c3ccc(OC4CCN(C[C@@H](C)O)CC4)cc3)c2c1)c1ccccc1 [Example A443, (R)-N-(2-ethyl-2-phenylbutyl)-3-(4-((1-(2-hydroxypropyl)piperidin-4-yl)oxy)phenyl)-1H-indazole-5-carboxamide] | > 500 | < 100 | 100 to 500 | 100 to 500 |
| C[C@@H](O)CN1CCC(Oc2ccc(-c3n[nH]c4ccc(C(=O)NCC5(OC6CCCC6)CCCCC5)cc34)cc2)CC1 [Example A444, (R)-N-((1-(cyclopentyloxy)cyclohexyl)methyl)-3-(4-((1-(2-hydroxypropyl)piperidin-4-yl)oxy)phenyl)-1H-indazole-5-carboxamide] | > 500 | < 100 | > 500 | > 500 |
| O=C(NCC1(N2CCOCC2)CCC(F)(F)CC1)c1ccc2[nH]nc(-c3ccc(N4CCOCC4)cc3)c2c1 [Example A460, N-((4,4-difluoro-1-morpholinocyclohexyl)methyl)-3-(4-morpholinophenyl)-1H-indazole-5-carboxamide] | > 500 | < 100 | > 500 | > 500 |
| O=C(NCC1(c2cccnc2)CC1)c1ccc2[nH]nc(-c3ccc(N4CCOCC4)cc3)c2c1 [Example A461, 3-(4-morpholinophenyl)-N-((1-(pyridin-3-yl)cyclopropyl)methyl)-1H-indazole-5-carboxamide] | > 500 | < 100 | > 500 | > 500 |
| CCC(CC)(CNC(=O)c1ccc2[nH]nc(-c3ccc(N4CCOCC4)cc3)c2c1)N1CCOCC1 [Example A463, N-(2-ethyl-2-morpholinobutyl)-3-(4-morpholinophenyl)-1H-indazole-5-carboxamide] | 100 to 500 | < 100 | 100 to 500 | < 100 |
| O=C(NCC1(c2ccncc2)CC1)c1ccc2[nH]nc(-c3ccc(N4CCOCC4)cc3)c2c1 [Example A464, 3-(4-morpholinophenyl)-N-((1-(pyridin-4-yl)cyclopropyl)methyl)-1H-indazole-5-carboxamide] | > 500 | 100 to 500 | > 500 | 100 to 500 |
| CCC(CC)(CNC(=O)c1ccc2[nH]nc(-c3ccc(N4CCN(C)CC4)cc3)c2c1)N1CCOCC1 [Example A465, N-(2-ethyl-2-morpholinobutyl)-3-(4-(4-methylpiperazin-1-yl)phenyl)-1H-indazole-5-carboxamide] | 100 to 500 | < 100 | 100 to 500 | < 100 |
| CN1CCN(C2(CNC(=O)c3ccc4[nH]nc(-c5ccc(N6CCOCC6)cc5)c4c3)CCCC2)CC1 [Example A467, N-((1-(4-methylpiperazin-1-yl)cyclopentyl)methyl)-3-(4-morpholinophenyl)-1H-indazole-5-carboxamide] | > 500 | 100 to 500 | > 500 | > 500 |
| CN1CCC(CNC(=O)c2ccc3[nH]nc(-c4ccc(N5[C@@H]6CC[C@H]5COC6)cc4)c3c2)(c2ccccc2)CC1 [Example A468, 3-(4-((1R,5S)-3-oxa-8-azabicyclo[3.2.1]octan-8-yl)phenyl)-N-((1-methyl-4-phenylpiperidin-4-yl)methyl)-1H-indazole-5-carboxamide] | > 500 | < 100 | 100 to 500 | 100 to 500 |
| CN1CCC(CO)(Cc2ccc(-c3n[nH]c4ccc(C(=O)NCC5(N6CCOCC6)CCCCC5)cc34)cc2)CC1 [Example A486, 3-(4-((4-(hydroxylmethyl)-1-methylpiperidin-4-yl)methyl)phenyl)-N-((1-morpholinocyclohexyl)methyl)-1H-indazole-5-carboxamide] | > 500 | < 100 | 100 to 500 | 100 to 500 |
| CN1[C@@H]2CC[C@H]1C[C@@H](Oc1ccc(-c3n[nH]c4ccc(C(=O)NCC5(c6ccccn6)CC5)cc34)cc1)C2 [Example A488] | > 500 | < 100 | > 500 | > 500 |
| CC1(C)CC(=O)c2cc(-c3n[nH]c4ccc(C(=O)NCC5(N6CCOCC6)CCCCC5)cc34)ccc2O1 [Example A490, 3-(2,2-dimethyl-4-oxochroman-6-yl)-N-((1-morpholinocyclohexyl)methyl)-1H-indazole-5-carboxamide] | > 500 | 100 to 500 | > 500 | > 500 |
| Cc1cc(=O)n(C)c2ccc(-c3n[nH]c4ccc(C(=O)NCC5(N6CCOCC6)CCCCC5)cc34)cc12 [Example A491, 3-(1,4-dimethyl-2-oxo-1,2-dihydroquinolin-6-yl)-N-((1-morpholinocyclohexyl)methyl)-1H-indazole-5-carboxamide] | > 500 | < 100 | > 500 | > 500 |
| O=C(NCC1(N2CCOCC2)CCOCC1)c1ccc2[nH]nc(-c3ccc(N4[C@@H]5CC[C@H]4C[C@@H](O)C5)cc3)c2c1 [Example A493, 3-(4-((1R,3R,5S)-3-hydroxy-8-azabicyclo[3.2.1]octan-8-yl)phenyl)-N-((4-morpholinotetrahydro-2H-pyran-4-yl)methyl)-1H-indazoIe-5-carboxamide] | > 500 | < 100 | 100 to 500 | 100 to 500 |
| O=C(NCC1(N2CCOCC2)CCCOC1)c1ccc2[nH]nc(-c3ccc(N4C5CCC4CC(O)C5)cc3)c2c1 [Example A495, 3-(4-((1R,3R.5S)-3-hydroxy-8-azabicyclo[3.2.1]octan-8-yl)phenyl)-N-((3-morpholinotetrahydro-2H-pyran-3-yl)methyl)-1H-indazole-5-carboxamide] | 100 to 500 | < 100 | 100 to 500 | < 100 |
| O=C(NCC1(c2ccccc2)CCOCC1)c1ccc2[nH]nc(-c3ccc(N4CC(N5CCOCC5)C4)cc3)c2c1 [Example A499, 3-(4-(3-morpholinoazetidin-1-yl)phenyl)-N-((4-phenyltetrahydro-2H-pyran-4-yl)methyl)-1H-indazole-5-carboxamide] | 100 to 500 | < 100 | 100 to 500 | 100 to 500 |
| O=C(NCC1(N2CCOCC2)CCCCC1)c1ccc2[nH]nc(-c3ccc(O[C@H]4C[C@H]5CC[C@@H](C4)N5C4COC4)cc3)c2c1 [Example A507, N-((1-morpholinocyclohexyl)methyl)-3-(4-(((1R,3R,5S)-8-(oxetan-3-yl)-8-azabicyclo[3.2.1]octan-3-yl)oxy)phenyl)-1H-indazole-5-carboxamide] | 100 to 500 | < 100 | 100 to 500 | 100 to 500 |
| O=C(NCC1(CN2CCOCC2)CCCCC1)c1ccc2[nH]nc(-c3ccc(N4CCOCC4)cc3)c2c1 [Example A509, N-((1-(morpholinomethyl)cyclohexyl)methyl)-3-(4-morpholinophenyl)-1H-indazole-5-carboxamide] | > 500 | < 100 | > 500 | > 500 |
| O=C(NCC1(CN2CCOCC2)CCCCC1)c1ccc2[nH]nc(-c3ccc(N4[C@@H]5CC[C@H]4COC5)cc3)c2c1 [Example A510, 3-(4-((1R,5S)-3-oxa-8-azabicyclo[3.2.1]octan-8-yl)phenyl)-N-((1-(morpholinomethyl)cyclohexyl)methyl)-1H-indazole-5-carboxamide] | 100 to 500 | < 100 | 100 to 500 | 100 to 500 |
